According to patent publication US20250230193A1, “CYCLIC COMPOUND HAVING SELECTIVE KRAS INHIBITORY EFFECT ON HRAS AND NRAS” (CHUGAI SEIYAKU KABUSHIKI KAISHA, priority 2022, published 2025):
Where a SMILES comes first, the peptide text is derived from it. Bridges are numbered along the chain shown (N, C = ends). [ ]: non-standard residue; d: D form. The star is where a group is joined. hPhe(3-Cl-4-CF3) = N[C@@H](CCc1ccc(C(F)(F)F)c(Cl)c1)C(=O)O; NPrPhe(4-CF3) = CCCN[C@@H](Cc1ccc(C(F)(F)F)cc1)C(=O)O; NMeGly(cPent) = CN[C@H](C(=O)O)C1CCCC1; NMeD = CN[C@@H](CC(=O)O)C(=O)O; NMeL = CN[C@@H](CC(C)C)C(=O)O; Morpholide = C1CN(*)CCO1; Ac5c = NC1(C(=O)O)CCCC1; NEtG = CCNCC(=O)O; Sar = CNCC(=O)O

Experiments:
[1] = biological target: GDP-bound NRAS wild-type protein (Homo sapiens, UniProt P01111); assay: Binding to NRAS by surface plasmon resonance (SPR), Single Cycle Kinetics; details: for NRAS/KRAS (ratio of KD value with respect to NRAS to KD value with respect to KRAS) / NRAS/KRAS (ratio of KD value for NRAS to KD value for KRAS): GDP-bound NRAS wild-type vs GDP-bound KRAS wild-type, SPR
[2] = biological target: GDP-bound HRAS wild-type protein (Homo sapiens, UniProt P01112); assay: Binding to HRAS by surface plasmon resonance (SPR), Single Cycle Kinetics; details: for HRAS/KRAS (ratio of KD value with respect to HRAS to KD value with respect to KRAS) / HRAS/KRAS (ratio of KD value for HRAS to KD value for KRAS): GDP-bound HRAS wild-type vs GDP-bound KRAS wild-type, SPR
Chain of GDP-bound HRAS wild-type protein (P01112 whole entry): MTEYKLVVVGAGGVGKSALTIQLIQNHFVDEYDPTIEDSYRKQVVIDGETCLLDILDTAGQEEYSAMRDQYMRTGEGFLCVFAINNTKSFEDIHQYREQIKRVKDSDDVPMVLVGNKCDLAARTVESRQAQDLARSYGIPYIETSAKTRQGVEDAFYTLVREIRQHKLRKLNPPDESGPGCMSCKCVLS

Chain of GDP-bound NRAS wild-type protein (P01111 whole entry): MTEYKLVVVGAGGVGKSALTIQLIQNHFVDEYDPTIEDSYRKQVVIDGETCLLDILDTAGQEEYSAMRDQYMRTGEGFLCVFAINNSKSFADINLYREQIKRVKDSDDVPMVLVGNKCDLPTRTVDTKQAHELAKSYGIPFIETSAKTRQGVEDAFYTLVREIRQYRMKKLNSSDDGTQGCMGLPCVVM

SMILES | NRAS/KRAS (ratio of KD value for NRAS to KD value for KRAS) ([1]; KD ratio) | HRAS/KRAS (ratio of KD value for HRAS to KD value for KRAS) ([2]; KD ratio) | also measured
CCO[C@@H]1C[C@H]2C(=O)NC3(CCC3)C(=O)N(C)[C@@H](C3CCCC3)C(=O)N(C)[C@H](C(=O)N(C)C)CC(=O)N(C)[C@@H](CC)C(=O)N[C@@H]([C@@H](C)CC)C(=O)N(C)CC(=O)N(C)[C@H]3CCCCCN(C3=O)[C@@H](Cc3ccc(C(F)(F)F)cc3)C(=O)N(C)CC(=O)N[C@@H](CCc3c(F)c(F)c(C(F)(F)F)c(F)c3F)C(=O)N2C1 [PP0891] | – | – | NRAS/KRAS (ratio of KD value with respect to NRAS to KD value with respect to KRAS) ([1]; KD ratio): B (a compound having 3 or more and less than 10 is denoted as B); HRAS/KRAS (ratio of KD value with respect to HRAS to KD value with respect to KRAS) ([2]; KD ratio): B (a compound having 3 or more and less than 10 is denoted as B)
CCO[C@@H]1C[C@H]2C(=O)NC3(CC(C)(C)C3)C(=O)N(C)[C@@H](C3CCCC3)C(=O)N(C)[C@H](C(=O)N(C)C)CC(=O)N(C)[C@@H](CC(F)(F)F)C(=O)N[C@@H]([C@@H](C)CC)C(=O)N(C)CC(=O)N(C)[C@H]3C/C=C\CCN(C3=O)[C@@H](Cc3ccc(C(F)(F)F)cc3)C(=O)N(C)CC(=O)N[C@@H](CCc3ccc(Cl)c(Cl)c3)C(=O)N2C1 [PP2832] | – | – | NRAS/KRAS (ratio of KD value with respect to GDP-bound NRAS wild-type protein to KD value with respect to KRAS) ([1]; KD ratio NRAS/KRAS, class symbols): A (a compound having 10 or more and less than 20 is denoted as A); HRAS/KRAS (ratio of KD value with respect to GDP-bound HRAS wild-type protein to KD value with respect to KRAS) ([2]; KD ratio HRAS/KRAS, class symbols): A (a compound having 10 or more and less than 20 is denoted as A)
CCC[C@H]1C(=O)N[C@@H]([C@@H](C)CC)C(=O)N(C)CC(=O)N(C)[C@H]2C/C=C\CCN(C2=O)[C@@H](Cc2ccc(C(F)(F)F)cc2)C(=O)N(C)CC(=O)N[C@@H](CCc2cc(F)c(C(F)(F)F)c(F)c2)C(=O)N2C[C@H](OCC)C[C@H]2C(=O)NC2(CC(C)(C)C2)C(=O)N(C)[C@@H]([C@@H](C)CC)C(=O)N(C)[C@H](C(=O)N(C)C)CC(=O)N1C [PP1941] | A (a compound having 10 or more and less than 20 is denoted as A) | A (a compound having 10 or more and less than 20 is denoted as A) | –
CCO[C@@H]1C[C@H]2C(=O)NC3(CC(C)(C)C3)C(=O)N(C)[C@@H](C3CCCC3)C(=O)N(C)[C@H](C(=O)N(C)CC)CC(=O)N(C)[C@@H](CC)C(=O)N[C@@H]([C@@H](C)CC)C(=O)N(C)CC(=O)N(C)[C@H]3C/C=C\CCN(C3=O)[C@@H](Cc3ccc(C)cc3)C(=O)N(C)CC(=O)N[C@@H](CCc3ccc(C(F)(F)F)c(Cl)c3)C(=O)N2C1 [PP1880] | A (a compound having 10 or more and less than 20 is denoted as A) | B (a compound having 3 or more and less than 10 is denoted as B) | –
CCCN1C(=O)CN(C)C(=O)CNC(=O)[C@H]([C@@H](C)CC)NC(=O)[C@H](CC(C)C)N(C)C(=O)C[C@@H](C(=O)N2CCOCC2)N(C)C(=O)[C@H](C2CCCC2)N(C)C(=O)C2(CCCC2)NC(=O)[C@@H]2CCCN2C(=O)[C@H](CCc2ccc(C(F)(F)F)c(Cl)c2)NC(=O)CN(CC)C(=O)[C@@H]1Cc1ccc(C(F)(F)F)cc1 [PP1969] ([NMeL]IG[Sar][NPrPhe(4-CF3)][NEtG][hPhe(3-Cl-4-CF3)]P[Ac5c][NMeGly(cPent)][NMeD]-Morpholide; lactam N-11) | B (a compound having 3 or more and less than 10 is denoted as B) | C (A compound having a KD ratio of 0.1 or more and less than 3 is denoted as C) | –
CCC[C@H]1C(=O)N[C@@H]([C@@H](C)CC)C(=O)N(C)CC(=O)N(C)[C@H]2C/C=C\CCN(C2=O)[C@@H](Cc2ccc(C(F)(F)F)cc2)C(=O)N(C)CC(=O)N[C@@H](CCc2cc(F)c(C(F)(F)F)c(F)c2)C(=O)N2C[C@H](OCC)C[C@H]2C(=O)NC2(CC(C)(C)C2)C(=O)N(C)[C@@H](C2CCCC2)C(=O)N(C)[C@H](C(=O)N2CCC2)CC(=O)N1C [PP1943] | A (a compound having 10 or more and less than 20 is denoted as A) | B (a compound having 3 or more and less than 10 is denoted as B) | –
CC[C@H](C)[C@@H]1NC(=O)[C@H](CC(F)(F)F)N(C)C(=O)C[C@@H](C(=O)N(C)C)N(C)C(=O)[C@H](C2CCCC2)N(C)C(=O)C2(CC(C)(C)C2)NC(=O)[C@@H]2C[C@@H](F)CN2C(=O)[C@H](CCc2cc(F)c(C(F)(F)F)c(F)c2)NC(=O)CN(C)C(=O)[C@H](Cc2ccc(C(F)(F)F)cc2)N2CC/C=C\C[C@@H](C2=O)N(C)C(=O)CN(C)C1=O [PP1688] | A (a compound having 10 or more and less than 20 is denoted as A) | A (a compound having 10 or more and less than 20 is denoted as A) | –
CCO[C@H](C)[C@@H]1NC(=O)[C@H](CC(C)C)N(C)C(=O)C[C@@H](C(=O)N(C)C)N(C)C(=O)[C@H](C2CCCC2)N(C)C(=O)C2(CC(C)(C)C2)NC(=O)[C@@H]2C[C@H](C)CN2C(=O)[C@H](CCc2ccc(C(F)(F)F)c(OC)c2)NC(=O)CN(C)C(=O)[C@H](Cc2ccc(C)cc2)N2CC/C=C\C[C@@H](C2=O)N(C)C(=O)[C@@H]2CCCN2C1=O [PP2418] | – | – | NRAS/KRAS (ratio of KD value with respect to NRAS to KD value with respect to KRAS) [1]: A (a compound having 10 or more and less than 20 is denoted as A); HRAS/KRAS (ratio of KD value with respect to HRAS to KD value with respect to KRAS) [2]: B (a compound having 3 or more and less than 10 is denoted as B)
